Active and inactive are the calls of the source.
Legend:
[1] = tested on: OVCAR-3; experiment: Cytotoxicity against human OVCAR3 cells assessed as growth inhibition at 10 uM after 24 hrs by SRB assay; format: functional
[2] = tested on: RPMI-8226; experiment: Cytotoxicity against human RPMI8226 cells assessed as growth inhibition at 10 uM after 24 hrs by SRB assay; format: functional
[3] = tested on: SNB-75; experiment: Cytotoxicity against human SNB75 cells assessed as growth inhibition at 10 uM after 24 hrs by SRB assay; format: functional; settings: for inhibition of growth at 10 µM: SNB-75, 24 h, read-out: GI
[4] = tested on: SR; experiment: Cytotoxicity against human SR cells assessed as growth inhibition at 10 uM after 24 hrs by SRB assay; format: functional; settings: for inhibition of growth at 10 µM: read-out: GI
[5] = tested on: SK-MEL-28; experiment: Cytotoxicity against human SK-MEL-28 cells assessed as growth inhibition at 10 uM after 24 hrs by SRB assay; format: functional; settings: for inhibition of growth at 10 µM: SK-MEL-28, 24 h, read-out: GI
[6] = tested on: OVCAR-8; experiment: Cytotoxicity against human OVCAR8 cells assessed as growth inhibition at 10 uM after 24 hrs by SRB assay; format: functional
[7] = tested on: NCI-H460; experiment: Cytotoxicity against human NCI-H460 cells assessed as growth inhibition at 10 uM after 24 hrs by SRB assay; format: functional
[8] = tested on: SF-295; experiment: Cytotoxicity against human SF295 cells assessed as growth inhibition at 10 uM after 24 hrs by SRB assay; format: functional; settings: for inhibition of growth at 10 µM: SF-295, 24 h, read-out: GI
[9] = tested on: CCRF-CEM; experiment: Cytotoxicity against human CCRF-CEM cells assessed as growth inhibition at 10 uM after 24 hrs by SRB assay; format: functional
[10] = tested on: UACC-62; experiment: Cytotoxicity against human UACC62 cells assessed as growth inhibition at 10 uM after 24 hrs by SRB assay; format: functional
[11] = tested on: T47D; experiment: Cytotoxicity against human T47D cells assessed as growth inhibition at 10 uM after 24 hrs by SRB assay; format: functional
[12] = tested on: HOP-62; experiment: Cytotoxicity against human HOP62 cells assessed as growth inhibition at 10 uM after 24 hrs by SRB assay; format: functional
[13] = tested on: MDA-MB-435; experiment: Cytotoxicity against human MDA-MB-435 cells assessed as growth inhibition at 10 uM after 24 hrs by SRB assay; format: functional
[14] = species on record: Ovis aries; experiment: Inhibition of sheep tubulin polymerization at 100 uM by fluorescence assay
[15] = tested on: SF-539; experiment: Cytotoxicity against human SF539 cells assessed as growth inhibition at 10 uM after 24 hrs by SRB assay; format: functional
[16] = tested on: ACHN; experiment: Cytotoxicity against human ACHN cells assessed as growth inhibition at 10 uM after 24 hrs by SRB assay; format: functional
[17] = tested on: MDA-MB-231; experiment: Cytotoxicity against human MDA-MB-231 cells assessed as growth inhibition at 10 uM after 24 hrs by SRB assay; format: functional; settings: for inhibition of growth at 10 µM: MDA-MB-231, 24 h, read-out: GI
[18] = tested on: K562; experiment: Cytotoxicity against human K562 cells assessed as growth inhibition at 10 uM after 24 hrs by SRB assay; format: functional
[19] = tested on: CAKI-1; experiment: Cytotoxicity against human CAKI-1 cells assessed as growth inhibition at 10 uM after 24 hrs by SRB assay; format: functional
[20] = tested on: NCI-H226; experiment: Cytotoxicity against human NCI-H226 cells assessed as growth inhibition at 10 uM after 24 hrs by SRB assay; format: functional
[21] = tested on: OVCAR-4; experiment: Cytotoxicity against human OVCAR4 cells assessed as growth inhibition at 10 uM after 24 hrs by SRB assay; format: functional
[22] = tested on: SK-OV-3; experiment: Cytotoxicity against human SKOV3 cells assessed as growth inhibition at 10 uM after 24 hrs by SRB assay; format: functional
[23] = tested on: A549; experiment: Cytotoxicity against human A549 cells assessed as growth inhibition at 10 uM after 24 hrs by SRB assay; format: functional
[24] = tested on: HL-60(TB); experiment: Cytotoxicity against human HL-60(TB) cells assessed as growth inhibition at 10 uM after 24 hrs by SRB assay; format: functional
[25] = tested on: HCT-116; experiment: Cytotoxicity against human HCT116 cells assessed as growth inhibition at 10 uM after 24 hrs by SRB assay; format: functional
[26] = tested on: U-251; experiment: Cytotoxicity against human U251 cells assessed as growth inhibition at 10 uM after 24 hrs by SRB assay; format: functional
[27] = tested on: RXF 393; experiment: Cytotoxicity against human RXF393 cells assessed as growth inhibition at 10 uM after 24 hrs by SRB assay; format: functional; settings: for inhibition of growth at 10 µM: RXF 393, 24 h, read-out: GI
[28] = tested on: NCI/ADR-RES; experiment: Cytotoxicity against human NCI/ADR-RES cells assessed as growth inhibition at 10 uM after 24 hrs by SRB assay; format: functional
[29] = tested on: MCF7; experiment: Cytotoxicity against human MCF7 cells assessed as growth inhibition at 10 uM after 24 hrs by SRB assay; format: functional; settings: for inhibition of growth at 10 µM: MCF7, 24 h, read-out: GI
[30] = tested on: Hs-578T; experiment: (§1) Cytotoxicity against human Hs578T cells assessed as growth inhibition at 10 uM after 24 hrs by SRB assay; format: functional
[31] = tested on: NCI-H522; experiment: Cytotoxicity against human NCI-H522 cells assessed as growth inhibition at 10 uM after 24 hrs by SRB assay; format: functional
[32] = tested on: HOP-92; experiment: Cytotoxicity against human HOP92 cells assessed as growth inhibition at 10 uM after 24 hrs by SRB assay; format: functional
[33] = tested on: SK-MEL-5; experiment: Cytotoxicity against human SK-MEL-5 cells assessed as growth inhibition at 10 uM after 24 hrs by SRB assay; format: functional
[34] = tested on: PC-3; experiment: Cytotoxicity against human PC3 cells assessed as growth inhibition at 10 uM after 24 hrs by SRB assay; format: functional
[35] = tested on: 786-0; experiment: Cytotoxicity against human 786-0 cells assessed as growth inhibition at 10 uM after 24 hrs by SRB assay; format: functional
[36] = tested on: Malme-3M; experiment: Cytotoxicity against human MALME-3M cells assessed as growth inhibition at 10 uM after 24 hrs by SRB assay; format: functional; settings: for inhibition of growth at 10 µM: read-out: GI
[37] = tested on: TK-10; experiment: Cytotoxicity against human TK10 cells assessed as growth inhibition at 10 uM after 24 hrs by SRB assay; format: functional
[38] = tested on: UACC-257; experiment: Cytotoxicity against human UACC257 cells assessed as growth inhibition at 10 uM after 24 hrs by SRB assay; format: functional; settings: for inhibition of growth at 10 µM: UACC-257, 24 h, read-out: GI
[39] = as §1; format: functional; settings: Hs-578T, read-out: GI

COc1nc(OC)nc(-c2cc(C(=O)c3cc(OC)c(OC)c(OC)c3)n3ccccc23)n1
inactive: growth inhibition (GI) [1] | growth inhibition (GI) [2] | growth inhibition (GI) [3] | growth inhibition (GI) [5] | growth inhibition (GI) [6] | growth inhibition (GI) [7] | growth inhibition (GI) [8] | growth inhibition (GI) [9] | growth inhibition (GI) [10] | growth inhibition (GI) [11] | growth inhibition (GI) [12] | inhibition [14] | growth inhibition (GI) [15] | growth inhibition (GI) [16] | growth inhibition (GI) [17] | growth inhibition (GI) [19] | growth inhibition (GI) [20] | growth inhibition (GI) [21] | growth inhibition (GI) [22] | growth inhibition (GI) [23] | growth inhibition (GI) [24] | growth inhibition (GI) [25] | growth inhibition (GI) [26] | growth inhibition (GI) [27] | growth inhibition (GI) [28] | growth inhibition (GI) [29] | growth inhibition (GI) [30] | growth inhibition (GI) [31] | growth inhibition (GI) [32] | growth inhibition (GI) [33] | growth inhibition (GI) [34] | growth inhibition (GI) [35] | growth inhibition (GI) [37] | growth inhibition (GI) [38]
20%: inhibition of growth at 10 µM [4]
11%: inhibition of growth at 10 µM [36]
10%: inhibition of growth at 10 µM ([18]; K562, 24 h, read-out: GI)
35%: inhibition of growth at 10 µM ([13]; MDA-MB-435, 24 h, read-out: GI)

COc1nc(OC)nc(-c2cc(C(=O)c3ccc(Br)cc3)n3ccc(C)cc23)n1
31%: inhibition of growth at 10 µM [38]
20%: inhibition of growth at 10 µM [8]
38%: inhibition of growth at 10 µM [29]
95%: inhibition of growth at 10 µM ([21]; OVCAR-4, 24 h, read-out: GI)
73%: inhibition of growth at 10 µM [36]
inactive: growth inhibition (GI) [1] | growth inhibition (GI) [2] | growth inhibition (GI) [3] | growth inhibition (GI) [4] | growth inhibition (GI) [6] | growth inhibition (GI) [7] | growth inhibition (GI) [9] | growth inhibition (GI) [10] | growth inhibition (GI) [11] | growth inhibition (GI) [12] | growth inhibition (GI) [13] | inhibition [14] | growth inhibition (GI) [15] | growth inhibition (GI) [16] | growth inhibition (GI) [17] | growth inhibition (GI) [18] | growth inhibition (GI) [19] | growth inhibition (GI) [20] | growth inhibition (GI) [22] | growth inhibition (GI) [23] | growth inhibition (GI) [24] | growth inhibition (GI) [25] | growth inhibition (GI) [26] | growth inhibition (GI) [28] | growth inhibition (GI) [30] | growth inhibition (GI) [31] | growth inhibition (GI) [32] | growth inhibition (GI) [33] | growth inhibition (GI) [34] | growth inhibition (GI) [35] | growth inhibition (GI) [37]
30%: inhibition of growth at 10 µM [5]

COc1nc(OC)nc(-c2cc(C(=O)c3ccc(Br)cc3)n3ccc(C#N)cc23)n1
inactive: growth inhibition (GI) [1] | growth inhibition (GI) [2] | growth inhibition (GI) [4] | growth inhibition (GI) [5] | growth inhibition (GI) [6] | growth inhibition (GI) [7] | growth inhibition (GI) [8] | growth inhibition (GI) [9] | growth inhibition (GI) [10] | growth inhibition (GI) [11] | growth inhibition (GI) [12] | growth inhibition (GI) [13] | inhibition [14] | growth inhibition (GI) [15] | growth inhibition (GI) [16] | growth inhibition (GI) [18] | growth inhibition (GI) [19] | growth inhibition (GI) [20] | growth inhibition (GI) [21] | growth inhibition (GI) [22] | growth inhibition (GI) [23] | growth inhibition (GI) [24] | growth inhibition (GI) [25] | growth inhibition (GI) [26] | growth inhibition (GI) [28] | growth inhibition (GI) [29] | growth inhibition (GI) [30] | growth inhibition (GI) [31] | growth inhibition (GI) [32] | growth inhibition (GI) [33] | growth inhibition (GI) [34] | growth inhibition (GI) [35] | growth inhibition (GI) [36] | growth inhibition (GI) [37]
14%: inhibition of growth at 10 µM [27]
11%: inhibition of growth at 10 µM [17] | inhibition of growth at 10 µM [38]
27%: inhibition of growth at 10 µM [3]

COc1nc(OC)nc(-c2cc(C(=O)c3ccc(Cl)cc3)n3ccccc23)n1
-3%: inhibition of growth at 10 µM [3]
44%: inhibition of growth at 10 µM ([26]; U-251, 24 h, read-out: GI)
33%: inhibition of growth at 10 µM [8]
11%: inhibition of growth at 10 µM ([9]; read-out: GI)
inactive: growth inhibition (GI) [1] | growth inhibition (GI) [13] | inhibition [14] | growth inhibition (GI) [18] | growth inhibition (GI) [19] | growth inhibition (GI) [20] | growth inhibition (GI) [21] | growth inhibition (GI) [24] | growth inhibition (GI) [28] | growth inhibition (GI) [32] | growth inhibition (GI) [33] | growth inhibition (GI) [38]
13%: inhibition of growth at 10 µM ([2]; RPMI-8226, 24 h, read-out: GI)
26%: inhibition of growth at 10 µM [4] | inhibition of growth at 10 µM ([25]; HCT-116, 24 h, read-out: GI)
77%: inhibition of growth at 10 µM ([12]; HOP-62, 24 h, read-out: GI)
19%: inhibition of growth at 10 µM ([11]; read-out: GI) | inhibition of growth at 10 µM [29] | inhibition of growth at 10 µM ([34]; PC-3, 24 h, read-out: GI)
30%: inhibition of growth at 10 µM [36]
14%: inhibition of growth at 10 µM ([10]; UACC-62, 24 h, read-out: GI)
20%: inhibition of growth at 10 µM ([7]; NCI-H460, 24 h, read-out: GI)
21%: inhibition of growth at 10 µM ([23]; A549, 24 h, read-out: GI)
46%: inhibition of growth at 10 µM [39]
47%: inhibition of growth at 10 µM ([31]; NCI-H522, 24 h, read-out: GI)
43%: inhibition of growth at 10 µM [17]
31%: inhibition of growth at 10 µM ([35]; 786-0, 24 h, read-out: GI)
56%: inhibition of growth at 10 µM ([16]; read-out: GI)
37%: inhibition of growth at 10 µM [27]
24%: inhibition of growth at 10 µM ([6]; OVCAR-8, 24 h, read-out: GI)
12%: inhibition of growth at 10 µM [5] | inhibition of growth at 10 µM ([37]; TK-10, 24 h, read-out: GI)
55%: inhibition of growth at 10 µM ([22]; SK-OV-3, 24 h, read-out: GI)
39%: inhibition of growth at 10 µM ([15]; SF-539, 24 h, read-out: GI)

From ChEMBL document CHEMBL3612057, “Discovery of indolizines containing triazine moiety as new leads for the development of antitumoral agents targeting mitotic events” (2015)
